Data reported in PubChem BioAssay AID212 (DTP/NCI, 2004).
Where “and” joins values, the source holds several entries; their conditions need not be identical. Equal entries are not always repeated. Records with an inconclusive call do not appear.

Test system: BDF1 mice, colon carcinoma 38 sc, T/C %
Test: NCI In Vivo Anticancer Drug Screen. Data for tumor model Colon Carcinoma 38 (subcutaneous) in B6D2F1 (BDF1) mice
Details: endpoint: median tumor weight (est.), higher = larger tumour
Procedure, shortened: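 Mice with transplanted tumors are treated with compound or vehicle. Survival or tumor size is then measured in both groups. The ratio of treated to control gives the reported figure.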

[1] = dose: 12.5 mg/kg/injection, schedule: Q07DX002 (ip), vehicle: saline
[2] = dose: 25.0 mg/kg/injection, schedule: Q07DX002 (ip), vehicle: saline
[3] = dose: 50.0 mg/kg/injection, schedule: Q07DX002 (ip), vehicle: saline
[4] = dose: 100.0 mg/kg/injection, schedule: Q07DX002 (ip), vehicle: saline
[5] = dose: 25.0 mg/kg/injection, schedule: Q07DX002 (ip), vehicle: saline with Tween-80
[6] = dose: 100.0 mg/kg/injection, schedule: Q07DX002 (ip), vehicle: saline with Tween-80
[7] = dose: 200.0 mg/kg/injection, schedule: Q07DX002 (ip), vehicle: saline with Tween-80
[8] = dose: 50.0 mg/kg/injection, schedule: Q07DX002 (ip), vehicle: saline with Tween-80
[9] = dose: 200.0 mg/kg/injection, schedule: Q07DX002 (ip), vehicle: saline

CCN=C=NCCCN(C)C
T/C [1]: 118 % of control
T/C [2]: 103 % of control
T/C [3]: 120 % of control
T/C [4]: 100 % of control

COc1ccc(C(Cn2ccnc2)Sc2ccc(Cl)c(Cl)c2)cc1 (configuration not stated)
T/C [5]: 63 % of control and 87 % of control
T/C [6]: 114 % of control

CCCCCC1c2cc(O)ccc2OC1N1CCOCC1 (configuration not stated)
T/C (dose: 12.0 mg/kg/injection, schedule: Q07DX002 (ip), vehicle: saline with Tween-80): 107 % of control
T/C [5]: 161 % of control
T/C [6]: 169 % of control
T/C [7]: 55 % of control
T/C (dose: 400.0 mg/kg/injection, schedule: Q07DX002 (ip), vehicle: saline with Tween-80): 170 % of control
T/C (dose: 450.0 mg/kg/injection, schedule: Q07DX002 (ip), vehicle: saline with Tween-80): 120 % of control
T/C (dose: 900.0 mg/kg/injection, schedule: Q07DX002 (ip), vehicle: saline with Tween-80): 154 % of control

CN(CO)c1nc(N(C)CO)nc(N(C)CO)n1
T/C [1]: 95 % of control
T/C (dose: 12.5 mg/kg/injection, schedule: Q07DX003 (ip), vehicle: saline): 208 % of control
T/C [2]: 87 % of control
T/C (dose: 25.0 mg/kg/injection, schedule: Q07DX003 (ip), vehicle: saline): 165 % of control
T/C [8]: 117 % of control
T/C [3]: 66 % of control
T/C (dose: 50.0 mg/kg/injection, schedule: Q07DX003 (ip), vehicle: saline): 81 % of control
T/C [6]: 105 % of control
T/C [4]: 46 % of control
T/C (dose: 100.0 mg/kg/injection, schedule: Q07DX003 (ip), vehicle: saline): 46 % of control
T/C [7]: 55 % of control
T/C [9]: 21 % of control
T/C (dose: 200.0 mg/kg/injection, schedule: Q07DX003 (ip), vehicle: saline): 6 % of control
T/C (dose: 400.0 mg/kg/injection, schedule: Q07DX002 (ip), vehicle: saline): 4 % of control

O=C1C(O)=C(c2ccccc2)C(=O)C(O)=C1c1ccccc1
T/C (dose: 12.5 mg/kg/injection, schedule: Q07DX002 (ip), vehicle: saline with Tween-80): 103 % of control
T/C [1]: 89 % of control
T/C [5]: 111 % of control
T/C [2]: 55 % of control
T/C [8]: 86 % of control
T/C [3]: 106 % of control
T/C [4]: 105 % of control
T/C [9]: 102 % of control

CC1=CC2OC3C(OC(=O)CCCCl)C(OC(=O)CCCCl)C(C)(C2(CO)CC1)C31CO1 (configuration not stated)
T/C (dose: 2.0 mg/kg/injection, schedule: Q07DX003 (ip), vehicle: saline with Tween-80): 103 % of control
T/C (dose: 8.0 mg/kg/injection, schedule: Q07DX003 (ip), vehicle: saline with Tween-80): 76 % of control
T/C (dose: 16.0 mg/kg/injection, schedule: Q07DX003 (ip), vehicle: saline with Tween-80): 83 % of control

Cc1c(N)nc(C(CC(N)=O)NCC(N)C(N)=O)nc1C(=O)NC(C(=O)NC(C)C(O)C(C)C(=O)NC(C(=O)NCCc1nc(-c2nc(C(=O)NCCCNC(C)c3ccccc3)cs2)cs1)C(C)O)C(OC1OC(CO)C(O)C(O)C1OC1OC(CO)C(O)C(OC(N)=O)C1O)c1cnc[nH]1 (configuration not stated)
T/C (dose: 0.5 mg/kg/injection, schedule: Q07DX003 (ip), vehicle: saline): 75 % of control
T/C (dose: 1.0 mg/kg/injection, schedule: Q07DX002 (ip), vehicle: saline): 66 % of control
T/C (dose: 1.0 mg/kg/injection, schedule: Q07DX003 (ip), vehicle: saline): 90 % of control
T/C (dose: 2.0 mg/kg/injection, schedule: Q07DX002 (ip), vehicle: saline): 75 % of control
T/C (dose: 2.0 mg/kg/injection, schedule: Q07DX003 (ip), vehicle: saline): 102 % of control
T/C (dose: 4.0 mg/kg/injection, schedule: Q07DX003 (ip), vehicle: saline): 62 % of control
T/C (dose: 8.0 mg/kg/injection, schedule: Q07DX003 (ip), vehicle: saline): 83 % of control
T/C (dose: 16.0 mg/kg/injection, schedule: Q07DX003 (ip), vehicle: saline): 92 % of control
T/C (dose: 32.0 mg/kg/injection, schedule: Q07DX002 (ip), vehicle: saline): 29 % of control
